Measured values from patent publication US20230040770A1, “HETEROCYCLIC COMPOUND AND USE THEREOF” (TAKEDA PHARMACEUTICAL COMPANY LIMITED, priority 2019, published 2023).

The compounds below were run against T1, human orexin type 2 receptor (Homo sapiens, UniProt O43614) (assay: Measurement of orexin type 2 receptor agonist activity (calcium indicator fluorescence, CHO cells forcibly expressing human OX2 receptor)). Details: compound at 3 μM; 0% = DMSO, 100% = orexin A (human) 10 nM.
T1 construct: expressed in transfected cells
T1 sequence (O43614 1-444): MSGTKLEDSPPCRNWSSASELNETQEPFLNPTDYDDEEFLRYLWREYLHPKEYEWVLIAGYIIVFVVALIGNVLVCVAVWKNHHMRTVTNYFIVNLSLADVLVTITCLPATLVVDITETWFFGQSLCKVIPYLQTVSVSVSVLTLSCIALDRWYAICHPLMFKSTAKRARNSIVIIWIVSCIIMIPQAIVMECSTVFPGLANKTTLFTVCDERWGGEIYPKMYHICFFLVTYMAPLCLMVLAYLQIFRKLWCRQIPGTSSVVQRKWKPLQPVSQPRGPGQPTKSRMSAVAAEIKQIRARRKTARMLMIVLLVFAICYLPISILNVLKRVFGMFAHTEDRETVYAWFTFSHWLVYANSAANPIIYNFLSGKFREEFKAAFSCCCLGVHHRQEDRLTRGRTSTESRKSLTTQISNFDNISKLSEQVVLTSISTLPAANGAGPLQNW
Type: cell-based
Text: To obtain a cell clone stably expressing human orexin type 2 receptor, human orexin type 2 receptor cDNA was inserted into pcDNA3.1(+) plasmid vector (Invitrogen), and a plasmid DNA for expression of human orexin type 2 receptor (pcDNA3.1(+)/hOX2R) was cloned. The plasmid DNA was introduced into CHO-dhfr cell by an electroporation method, and human orexin type 2 receptor expressing clone cells were obtained by limiting dilution method by using G418 drug resistance as a selection marker.
CHO cells forcibly expressing human OX2 receptor were seeded in each well of 384 well black transparent bottom plate (BD Falcon) at 7,500 cells/well, and cultured for one day in a 5% CO2 incubator at 37° C. After removal of the medium in the cell plate, assay buffer A containing a calcium indicator (HBSS (Thermo Fisher Scientific), 20 mM HEPES (Thermo Fisher Scientific), 0.1% BSA (Sigma-Aldrich), 2.5 μg/mL Fluo-4 AM (DOJINDO Chemical), 0.08% Pluronic F127 (DOJINDO Chemical), 1.25 mM probenecid (DOJINDO Chemical)) was added at 30 μL/well. The plate was stood for 30 min in a 5% CO2 incubator at 37° C., and further stood at room temperature for 30 min. A test compound prepared by diluting with assay buffer B (HBSS, 20 mM HEPES, 0.1% BSA) was added at 10 μL/well, and the fluorescence value was measured by FDSSμCELL (Hamamatsu Photonics K.K.) every one sec for 1 min, and thereafter every two sec for […]. The activity (%) of the test compound was calculated assuming that variation in the fluorescence value when DMSO was added instead of the test compound was 0%, and variation in the fluorescence value when orexin A (human) (PEPTIDE INSTITUTE, INC.) was added at the final concentration of 10 nM was 100%.

| OX2R agonist activity (3 μM, %) [%] | Compound |
| --- | --- |
| 98 | CC(C)(O)C(=O)N1CC(F)(F)[C@H](NS(C)(=O)=O)[C@@H]1Cc1cccc(-c2cccc(Cl)c2)c1F [Example 44, N-[(2S,3R)-2-[(3′-chloro-2-fluoro[1,1′-biphenyl]-3-yl)methyl]-4,4-difluoro-1-(2-hydroxy-2-methylpropanoyl)pyrrolidin-3-yl]methanesulfonamide] |
| 98 | CCS(=O)(=O)N[C@@H]1[C@H](Cc2cccc(-c3ccccc3)c2F)N(C(=O)C2CCO2)CC1(F)F (stereo partly drawn) [Example 45, N-[(2S,3R)-4,4-difluoro-2-[(2-fluoro[1,1′-biphenyl]-3-yl)methyl]-1-(oxetane-2-carbonyl)pyrrolidin-3-yl]ethanesulfonamide] |
| 102 | CCS(=O)(=O)N[C@@H]1[C@H](Cc2cccc(-c3ccccc3)c2F)N(C(=O)C2CCO2)CC1(F)F (stereo partly drawn) [Example 46, N-[(2S,3R)-4,4-difluoro-2-[(2-fluoro[1,1′-biphenyl]-3-yl)methyl]-1-(oxetane-2-carbonyl)pyrrolidin-3-yl]ethanesulfonamide] |
| 99 | CCS(=O)(=O)N[C@@H]1[C@H](Cc2cccc(-c3ccccc3)c2)N(C(=O)C2CCO2)CC1(F)F (stereo partly drawn) [Example 50, N-[(2S,3R)-2-[([1,1′-biphenyl]-3-yl)methyl]-4,4-difluoro-1-(oxetane-2-carbonyl)pyrrolidin-3-yl]ethanesulfonamide] |
| 99 | CCS(=O)(=O)N[C@@H]1[C@H](Cc2cccc(-c3ccccc3)c2)N(C(=O)C2CCO2)CC1(F)F (stereo partly drawn) [Example 51, N-[(2S,3R)-2-[([1,1′-biphenyl]-3-yl)methyl]-4,4-difluoro-1-(oxetane-2-carbonyl)pyrrolidin-3-yl]ethanesulfonamide] |
| 100 | CCS(=O)(=O)N[C@@H]1[C@H](Cc2cccc(-c3cccc(F)c3)c2)N(C(=O)C2CCO2)CC1(F)F (stereo partly drawn) [Example 52, N-[(2S,3R)-4,4-difluoro-2-[(3′-fluoro[1,1′-biphenyl]-3-yl)methyl]-1-(oxetane-2-carbonyl)pyrrolidin-3-yl]ethanesulfonamide] |
| 100 | CCS(=O)(=O)N[C@@H]1[C@H](Cc2cccc(-c3cccc(C)c3F)c2F)N(C(=O)C(C)(C)O)CC1(F)F [Example 65, N-[(2S,3R)-2-[(2,2′-difluoro-3′-methyl[1,1′-biphenyl]-3-yl)methyl]-4,4-difluoro-1-(2-hydroxy-2-methylpropanoyl)pyrrolidin-3-yl]ethanesulfonamide] |
| 106 | CCS(=O)(=O)N[C@@H]1[C@H](Cc2cccc(-c3cccc(Cl)c3)c2F)N(C(=O)C(C)(C)O)CC1(F)F [Example 68, N-[(2S,3R)-2-[(3′-chloro-2-fluoro[1,1′-biphenyl]-3-yl)methyl]-4,4-difluoro-1-(2-hydroxy-2-methylpropanoyl)pyrrolidin-3-yl]ethanesulfonamide] |
| 104 | CS(=O)(=O)N[C@@H]1[C@H](Cc2cccc(-c3ccccc3)c2F)N(C(=O)[C@H]2CCCO2)CC1(F)F [Example 73, N-{(2S,3R)-4,4-difluoro-2-[(2-fluoro[1,1′-biphenyl]-3-yl)methyl]-1-[(2R)-oxolane-2-carbonyl]pyrrolidin-3-yl}methanesulfonamide] |
| 98 | CS(=O)(=O)N[C@@H]1[C@H](Cc2cccc(-c3ccccc3)c2F)N(C(=O)C2(O)CCC2)CC1(F)F [Example 76, N-[(2S,3R)-4,4-difluoro-2-[(2-fluoro[1,1′-biphenyl]-3-yl)methyl]-1-(1-hydroxycyclobutane-1-carbonyl)pyrrolidin-3-yl]methanesulfonamide] |
| 95 | CC(C)C(=O)N1CC(F)(F)[C@H](NS(C)(=O)=O)[C@@H]1Cc1cccc(-c2ccccc2)c1F [Example 77, N-[(2S,3R)-4,4-difluoro-2-[(2-fluoro[1,1′-biphenyl]-3-yl)methyl]-1-(2-methylpropanoyl)pyrrolidin-3-yl]methanesulfonamide] |
| 93 | CS(=O)(=O)N[C@@H]1[C@H](Cc2cccc(-c3ccccc3)c2F)N(C(=O)C23CC(C2)C3)CC1(F)F [Example 78, N-{(2S,3R)-1-(bicyclo[1.1.1]pentane-1-carbonyl)-4,4-difluoro-2-[(2-fluoro[1,1′-biphenyl]-3-yl)methyl]pyrrolidin-3-yl}methanesulfonamide] |
| 102 | CS(=O)(=O)N[C@@H]1[C@H](Cc2cccc(-c3ccccc3)c2F)N(C(=O)C2CCO2)CC1(F)F (stereo partly drawn) [Example 79, N-[(2S,3R)-4,4-difluoro-2-[(2-fluoro[1,1′-biphenyl]-3-yl)methyl]-1-(oxetane-2-carbonyl)pyrrolidin-3-yl]methanesulfonamide] |
| 95 | CS(=O)(=O)N[C@@H]1[C@H](Cc2cccc(-c3cccc(F)c3)c2F)N(C(=O)[C@H]2CCO2)CC1(F)F [Example 81, N-[(2S,3R)-2-[(2,3′-difluoro[1,1′-biphenyl]-3-yl)methyl]-4,4-difluoro-1-((2R)-oxetane-2-carbonyl)pyrrolidin-3-yl]methanesulfonamide] |
| 98 | CCS(=O)(=O)N[C@@H]1[C@H](Cc2cccc(-c3cccc(F)c3)c2)N(C(=O)[C@H]2CCCO2)CC1(F)F [Example 88, N-{(2S,3R)-4,4-difluoro-2-[(3′-fluoro[1,1′-biphenyl]-3-yl)methyl]-1-[(2R)-oxolane-2-carbonyl]pyrrolidin-3-yl}ethanesulfonamide] |
| 99 | CS(=O)(=O)N[C@@H]1[C@H](Cc2cccc(-c3cc(F)cc(F)c3)c2F)N(C(=O)[C@@H]2CCO2)CC1(F)F [Example 92, N-{(2S,3R)-4,4-difluoro-1-((2S)-oxetane-2-carbonyl)-2-[(2,3′,5′-trifluoro[1,1′-biphenyl]-3-yl)methyl]pyrrolidin-3-yl}methanesulfonamide] |
| 98 | CCS(=O)(=O)N[C@@H]1[C@H](Cc2cccc(-c3cccc(F)c3)c2F)N(C(=O)C23CC(C2)C3)CC1(F)F [Example 93, N-{(2S,3R)-1-(bicyclo[1.1.1]pentane-1-carbonyl)-2-[(2,3′-difluoro[1,1′-biphenyl]-3-yl)methyl]-4,4-difluoropyrrolidin-3-yl}ethanesulfonamide] |
| 90 | CCS(=O)(=O)N[C@@H]1[C@H](Cc2cccc(-c3cccc(F)c3)c2)N(C(=O)C(C)C)CC1(F)F [Example 97, N-[(2S,3R)-4,4-difluoro-2-[(3′-fluoro[1,1′-biphenyl]-3-yl)methyl]-1-(2-methylpropanoyl)pyrrolidin-3-yl]ethanesulfonamide] |
| 91 | CC(C)C(=O)N1CC(F)(F)[C@H](NS(C)(=O)=O)[C@@H]1Cc1cccc(-c2cccc(F)c2)c1F [Example 98, N-[(2S,3R)-2-[(2,3′-difluoro[1,1′-biphenyl]-3-yl)methyl]-4,4-difluoro-1-(2-methylpropanoyl)pyrrolidin-3-yl]methanesulfonamide] |
| 99 | CCS(=O)(=O)N[C@@H]1[C@H](Cc2cccc(-c3ccccc3)c2F)N(C(=O)[C@H]2CCCO2)CC1(F)F [Example 105, N-{(2S,3R)-4,4-difluoro-2-[(2-fluoro[1,1′-biphenyl]-3-yl)methyl]-1-[(2R)-oxolane-2-carbonyl]pyrrolidin-3-yl}ethanesulfonamide] |
| 97 | CCS(=O)(=O)N[C@@H]1[C@H](Cc2cccc(-c3ccccc3)c2F)N(C(=O)C(C)C)CC1(F)F [Example 106, N-[(2S,3R)-4,4-difluoro-2-[(2-fluoro[1,1′-biphenyl]-3-yl)methyl]-1-(2-methylpropanoyl)pyrrolidin-3-yl]ethanesulfonamide] |
| 86 | CCS(=O)(=O)N[C@@H]1[C@H](Cc2cccc(-c3cc(F)cc(F)c3)c2)N(C(=O)C(C)C)CC1(F)F [Example 116, N-[(2S,3R)-2-[(3′,5′-difluoro[1,1′-biphenyl]-3-yl)methyl]-4,4-difluoro-1-(2-methylpropanoyl)pyrrolidin-3-yl]ethanesulfonamide] |
| 94 | CS(=O)(=O)N[C@@H]1[C@H](Cc2cccc(-c3cccc(F)c3F)c2F)N(C(=O)[C@H]2CCO2)CC1(F)F [Example 121, N-{(2S,3R)-4,4-difluoro-1-((2R)-oxetane-2-carbonyl)-2-[(2,2′,3′-trifluoro[1,1′-biphenyl]-3-yl)methyl]pyrrolidin-3-yl}methanesulfonamide] |
